From paper PMC6736568, “Discovery of Novel Anti-cryptosporidial Activities From Natural Products by in vitro High-Throughput Phenotypic Screening” (Frontiers in Microbiology, 2019)
Like-named read-outs stand apart in the source and are kept apart here.

Assays:
[1] = tested on: Cryptosporidium parvum; experiment: qRT-PCR assay of the growth of C. parvum in vitro in HCT-8 host cells (primary and secondary screening, EC50); assay type: cell-based; settings: for Inhibition (%): primary screening at 10 uM; for % Inhibition (3.3 uM): secondary screening at 3.3 uM
[2] = tested on: HCT-8 host cells (Hs18S); settings: for Hs18S ΔCT: treated vs control
[3] = primary screening at 10 uM, from Hs18S ΔCT

Compound | Inhibition (%) [1] [%] | Cytotoxicity (%) [2, 3] [%] | Hs18S ΔCT ([2]; primary screening at 10 uM) | % Inhibition (3.3 uM) [1] [%] | Cytotoxicity (%) ([2]; 10 µM)
C=C[C@@](C)(O)CC[C@H]1C(=C)C[C@H](O)[C@H]2C(C)(C)CCC[C@]12C [LARIXOL] | 31.41 | 2.2 | 0.03 | – | –
CC(=O)OCC1=C(C(=O)O)N2C(=O)[C@@H](N)[C@H]2SC1 [7-AMINOCEPHALOSPORANIC ACID] | -11.44 | 12.1 | 0.19 | – | –
AVERMECTIN A1a | 97.32 | 1.6 | 0.02 | -85 | –
AVOCATIN B | 4.87 | 21.9 | 0.36 | – | –
CC(=O)O[C@@H]1C[C@]2(C)[C@@H](C(C)=O)CC[C@H]2[C@@H]2CCC3=CC(=O)CC[C@]3(C)[C@H]21 [11a-ACETOXYPROGESTERONE] | 10.83 | -16.6 | -0.22 | – | –
COc1cc(O)c(C(=O)/C=C/c2ccc(OC)c(O)c2)c(OC)c1 [2',3-DIHYDROXY-4,4',6'-TRIMETHOXYCHALCONE] | -6.64 | -22.2 | -0.29 | – | –
OC[C@H]1O[C@H](O[C@H]2[C@H](O)[C@@H](O)[C@H](O)O[C@@H]2CO)[C@H](O)[C@@H](O)[C@@H]1O [D-(+)-MALTOSE] | 55.12 | – | -0.19 | – | –
PHYTOL | -12.94 | -33.6 | -0.42 | – | –
O=C(O)c1cc(O)c(=O)c2c(O)c(O)c(O)cc2c1 [PURPUROGALLIN-4-CARBOXYLIC ACID] | 2.20 | 7.3 | 0.11 | – | –
COC(=O)C1=CO[C@@H](C)[C@H]2CN3CC[C@]4(C(=O)Nc5ccccc54)[C@@H]3C[C@H]12 [MITRAPHYLLINE] | 41.31 | 11.1 | 0.17 | – | –
COc1cc([C@@H]2c3cc4c(cc3[C@H](OC(C)=O)[C@H]3COC(=O)[C@H]23)OCO4)cc(OC)c1OC [PODOPHYLLIN ACETATE] | 72.02 | 33.2 | 0.58 | 64 | –
AGELASINE (stereochemistry of diterpene unknown) | 43.55 | 16.8 | 0.27 | – | –
Cc1cc2nc3c(=O)[nH]c(=O)nc-3n(C[C@H](O)[C@H](O)[C@H](O)COP(=O)([O-])O)c2cc1C.[Na+] [RIBOFLAVIN 5-PHOSPHATE SODIUM] | -3.47 | -25.0 | -0.32 | – | –
COc1ccc(-c2coc3cc(O)cc(O)c3c2=O)cc1 [BIOCHANIN A] | 14.14 | 6.9 | 0.10 | – | –
CC(=O)O[C@@H]1C[C@H]2C(C)(C)C(=O)C=C[C@]2(C)[C@H]2CC[C@]3(C)C(=CC(=O)O[C@H]3c3ccoc3)[C@@]21C [DEOXYGEDUNIN] | 28.62 | 15.4 | 0.24 | – | –
CC1(C)CCC[C@]2(C)[C@H]3CC(=O)O[C@]3(C)CC[C@@H]12 [SCLAREOLIDE] | 26.58 | 32.7 | 0.57 | – | –
CC(=O)O[C@@H]1CC2C(C)(C)C(=O)C3OC3[C@]2(C)C2CC[C@@]3(C)[C@H](c4ccoc4)OC(=O)C4OC43[C@@]21C (stereo partly drawn) [EPOXYGEDUNIN] | 29.04 | -37.3 | -0.46 | – | –
COc1cc2c3cc1Oc1cc(ccc1O)C[C@@H]1c4c(cc(OC)c(O)c4Oc4ccc(cc4)C[C@@H]3N(C)CC2)CC[N+]1(C)C.Cl.O.O.O.O.O.[Cl-] [TUBOCURARINE CHLORIDE] | 37.53 | -22.2 | -0.29 | – | –
COc1c(-c2ccccc2)oc2cc(O)cc(O)c2c1=O [GALANGIN 3-O-METHYL ETHER] | -5.04 | – | – | – | -45.3
KHAYANTHONE | -5.94 | -0.3 | -0.01 | – | –
